ChEMBL document CHEMBL4680214, “Fluorinated derivatives of 2-phenyl-3-hydroxy-4(1H)-quinolinone as tubulin polymerization inhibitors” (Eur J Med Chem, 2020)
The source made the active and inactive calls. The rule behind the calls is not given here.

Columns and labels:
[1] = tested on: CCRF-CEM; test: Cytotoxicity against human CCRF-CEM cells incubated for 72 hrs by MTS assay; format: functional, cell-based
[2] = tested on: CCRF-CEM; test: Cytotoxicity against human daunorubicine-resistant CCRF-CEM cells incubated for 72 hrs by MTS assay; format: functional, cell-based
[3] = tested on: K562; test: Cytotoxicity against human K562 cells incubated for 72 hrs by MTS assay; format: functional, cell-based; conditions: K562, 72 h
[4] = tested on: K562; test: Cytotoxicity against human paclitaxel-resistant K562 cells incubated for 72 hrs by MTS assay; format: functional, cell-based; conditions: K562, 72 h
[5] = tested on: HCT-116; test: Cytotoxicity against human HCT-116 cells incubated for 72 hrs by MTS assay; format: functional, cell-based; conditions: HCT-116, 72 h
[6] = tested on: A549; test: Cytotoxicity against human A549 cells incubated for 72 hrs by MTS assay; format: functional, cell-based; conditions: A549, 72 h
[7] = tested on: BJ; test: Cytotoxicity against human BJ cells incubated for 72 hrs by MTS assay; format: cell-based
[8] = tested on: CCRF-CEM; test: Cell cycle arrest in human CCRF-CEM cells assessed as accumulation at sub-G1 phase at IC50 measured after 24 hrs by propidium iodide staining based flow cytometry (reference value: 2%); format: functional
[9] = tested on: CCRF-CEM; test: Cell cycle arrest in human CCRF-CEM cells assessed as accumulation at sub-G1 phase at 5 times IC50 measured after 24 hrs by propidium iodide staining based flow cytometry (reference value: 2%); format: functional
[10] = tested on: CCRF-CEM; test: Cell cycle arrest in human CCRF-CEM cells assessed as accumulation at G0/G1 phase at IC50 measured after 24 hrs by propidium iodide staining based flow cytometry (reference value: 35.2%); format: functional
[11] = tested on: CCRF-CEM; test: Cell cycle arrest in human CCRF-CEM cells assessed as accumulation at G0/G1 phase at 5 times IC50 measured after 24 hrs by propidium iodide staining based flow cytometry (reference value: 35.2%); format: functional
[12] = tested on: CCRF-CEM; test: Cell cycle arrest in human CCRF-CEM cells assessed as accumulation at S phase at 5 times IC50 measured after 24 hrs by propidium iodide staining based flow cytometry (reference value: 42.2%); format: functional
[13] = tested on: CCRF-CEM; test: Cell cycle arrest in human CCRF-CEM cells assessed as accumulation at G2/M phase at IC50 measured after 24 hrs by propidium iodide staining based flow cytometry (reference value: 22.6%); format: functional
[14] = tested on: CCRF-CEM; test: Cell cycle arrest in human CCRF-CEM cells assessed as phosphorylation of histone H3 at Ser10 at IC50 measured after 24 hrs by propidium iodide staining based flow cytometry (reference value: 2.0%); format: functional
[15] = tested on: CCRF-CEM; test: Cell cycle arrest in human CCRF-CEM cells assessed as phosphorylation of histone H3 at Ser10 at 5 times IC50 measured after 24 hrs by propidium iodide staining based flow cytometry (reference value: 2.0%); format: functional
[16] = tested on: CCRF-CEM; test: Cell cycle arrest in human CCRF-CEM cells assessed as BrdU incorporation at IC50 measured after 24 hrs by propidium iodide/immunostaining based flow cytometry (reference value: 60.0%); format: functional
[17] = tested on: CCRF-CEM; test: Cell cycle arrest in human CCRF-CEM cells assessed as BrdU incorporation at 5 times IC50 measured after 24 hrs by propidium iodide/immunostaining based flow cytometry (reference value: 60.0%); format: functional
[18] = tested on: CCRF-CEM; test: Cell cycle arrest in human CCRF-CEM cells assessed as BrU incorporation at 5 times IC50 measured after 24 hrs by propidium iodide/immunostaining based flow cytometry (reference value: 52.2%); format: functional
[19] = tested on: HCT-116; test: Cell cycle arrest in human HCT-116 cells assessed as accumulation at sub-G1 phase at 5 times IC50 measured after 24 hrs by propidium iodide staining based flow cytometry (reference value: 1.6%); format: functional
[20] = tested on: HCT-116; test: Cell cycle arrest in human HCT-116 cells assessed as accumulation at G0/G1 phase at IC50 measured after 24 hrs by propidium iodide staining based flow cytometry (reference value: 35.3%); format: functional
[21] = tested on: HCT-116; test: Cell cycle arrest in human HCT-116 cells assessed as accumulation at S phase at IC50 measured after 24 hrs by propidium iodide staining based flow cytometry (reference value: 37.7%); format: functional
[22] = tested on: HCT-116; test: Cell cycle arrest in human HCT-116 cells assessed as accumulation at S phase at 5 times IC50 measured after 24 hrs by propidium iodide staining based flow cytometry (reference value: 37.7%); format: functional
[23] = tested on: HCT-116; test: Cell cycle arrest in human HCT-116 cells assessed as accumulation at G2/M phase at IC50 measured after 24 hrs by propidium iodide staining based flow cytometry (reference value: 27.0%); format: functional
[24] = tested on: HCT-116; test: Cell cycle arrest in human HCT-116 cells assessed as accumulation at G2/M phase at 5 times IC50 measured after 24 hrs by propidium iodide staining based flow cytometry (reference value: 27.0%); format: functional
[25] = tested on: HCT-116; test: Cell cycle arrest in human HCT-116 cells assessed as BrdU incorporation at 5 times IC50 measured after 24 hrs by propidium iodide/immunostaining based flow cytometry (reference value: 48.6%); format: functional
[26] = tested on: HCT-116; test: Cell cycle arrest in human HCT-116 cells assessed as BrU incorporation at IC50 measured after 24 hrs by propidium iodide/immunostaining based flow cytometry (reference value: 54.0%); format: functional
[27] = tested on: HCT-116; test: Cell cycle arrest in human HCT-116 cells assessed as BrU incorporation at 5 times IC50 measured after 24 hrs by propidium iodide/immunostaining based flow cytometry (reference value: 54.0%); format: functional
[28] = tested on: CCRF-CEM; test: Cell cycle arrest in human CCRF-CEM cells assessed as polyploid cell population at 2 times IC50 measured after 12 hrs by propidium iodide staining based flow cytometry (reference value: 11.3%); format: functional
[29] = tested on: CCRF-CEM; test: Cell cycle arrest in human CCRF-CEM cells assessed as polyploid cell population at 2 times IC50 measured after 36 hrs by propidium iodide staining based flow cytometry (reference value: 11.3%); format: functional
[30] = tested on: CCRF-CEM; test: Cell cycle arrest in human CCRF-CEM cells assessed as increase in phosphorylation of histone H3 at Ser10 at 2 times IC50 measured after 6 to 12 hrs by Western blot analysis; format: functional, cell-based; conditions: time 6-12 hrs
[31] = tested on: CCRF-CEM; test: Cell cycle arrest in human CCRF-CEM cells assessed as increase in accumulation at G2/M phase at 2 times IC50 measured after 6 to 12 hrs by propidium iodide staining based flow cytometry; format: functional; conditions: time 6-12 hrs
[32] = tested on: CCRF-CEM; test: Cell cycle arrest in human CCRF-CEM cells assessed as increase in Bax expression at 2 times IC50 measured after 24 hrs by Western blot analysis; format: functional, cell-based
[33] = tested on: CCRF-CEM; test: Cell cycle arrest in human CCRF-CEM cells assessed as decrease in Bcl2 expression at 2 times IC50 measured after 24 hrs by Western blot analysis; format: functional, cell-based
[34] = species: Sus scrofa; test: Inhibition of porcine brain tubulin polymerization at 10 umol/L measured at 60 secs interval for 30 mins by turbidometric method; conditions: dose 10.0 µmol/L
[35] = species: Sus scrofa; test: Inhibition of porcine brain tubulin polymerization assessed as Vmax of polymerization at 10 umol/L measured at 60 secs interval for 30 mins by turbidometric method; conditions: dose 10.0 µmol/L
[36] = target: Tubulin (Homo sapiens) (UniProt P68371+Q9H4B7+P0DPH7+P68366+Q13509+Q71U36+P04350+Q3ZCM7+P07437+P68363+Q9BQE3+Q6PEY2+Q13885+Q9BVA1+Q9BUF5); test: Induction of microtubule depolymerization in human HCT-116 cells assessed as appearance of abnormal mitotic spindle morphology at 5 times IC50 after 24 hrs by DAPI staining based immunofluorescence analysis; format: cell-based

Question: Which IC50 [1] does the source give for `O=c1c(O)c(-c2ccccc2)[nH]c2cc(F)c(Sc3ccccc3)cc12` here?
Answer: The IC50 was 3.3 µM.

Question: And the IC50 [2]?
Answer: The IC50 was 3.7 µM.

Question: And the IC50 [3]?
Answer: Its IC50 is 1.3 µM.

Question: And the IC50 [4]?
Answer: The IC50 was 2.9 µM.

Question: What about the IC50 [5] of the same compound?
Answer: The IC50 was 1.3 µM.

Question: And the IC50 [6]?
Answer: Its IC50 is 3.6 µM.

Question: And the IC50 [7]?
Answer: Its IC50 is > 50 µM.

Question: What about the Activity [8] of the same compound?
Answer: The Activity was 5.8%.

Question: And the Activity [9]?
Answer: The Activity was 29.7%.

Question: What about the Activity [10] of the same compound?
Answer: Its Activity is 1.8%.

Question: And the Activity [11]?
Answer: The Activity was 58.2%.

Question: What about the Activity [12] of the same compound?
Answer: The Activity was 21.6%.

Question: What about the Activity [13] of the same compound?
Answer: Its Activity is 41.5%.

Question: What about the Activity [14] of the same compound?
Answer: The Activity was 9.4%.

Question: What about the Activity [15] of the same compound?
Answer: The Activity was 4.9%.

Question: What about the Activity [16] of the same compound?
Answer: Its Activity is 74.2%.

Question: And the Activity [17]?
Answer: The Activity was 18.7%.

Question: What about the Activity [18] of the same compound?
Answer: The Activity was 11.4%.

Question: What about the Activity [19] of the same compound?
Answer: The Activity was 8.2%.

Question: What about the Activity [20] of the same compound?
Answer: Its Activity is 33.3%.

Question: And the Activity [21]?
Answer: The Activity was 33.5%.

Question: And the Activity [22]?
Answer: Its Activity is 33.2%.

Question: And the Activity [23]?
Answer: The Activity was 33.2%.

Question: What about the Activity [24] of the same compound?
Answer: Its Activity is 64.1%.

Question: What about the Activity [25] of the same compound?
Answer: Its Activity is 41.6%.

Question: What about the Activity [26] of the same compound?
Answer: Its Activity is 65.4%.

Question: What about the Activity [27] of the same compound?
Answer: The Activity was 63.9%.

Question: What about the Activity [28] of the same compound?
Answer: The Activity was 12.4%.

Question: What about the Activity [29] of the same compound?
Answer: The Activity was 20.8%.

Question: And the Activity [30]?
Answer: The Activity was “Active”.

Question: What about the Activity [31] of the same compound?
Answer: The Activity was “Active”.

Question: What about the Activity [32] of the same compound?
Answer: Its Activity is “Active”.

Question: What about the Activity [33] of the same compound?
Answer: The Activity was “inactive”.

Question: And the inhibition [34]?
Answer: Its inhibition is “Active”.

Question: And the Vmax (milli optical density/minute) [35]?
Answer: Its Vmax (milli optical density/minute) is 8.3.

Question: What about the Activity [36] of the same compound?
Answer: The Activity was “Active”.
